This is an account of results in patent US20060099681A1, “Human and mouse alkaline ceramidase 1 and skin diseases” (U.S. DEPARTMENT OF VETERANS AFFAIRS, priority 2004, published 2006).

The test addresses T1, mouse alkaline ceramidase 1 (maCER1) (Mus musculus, UniProt Q8R4X1).
T1 construct: The ORF of the mouse alkaline ceramidase was amplified from the mouse liver cDNA library; made in house; host or cells: Saccharomyces cerevisiae mutant strain Δypc1Δydc1 (microsomes, galactose-induced, pYES2-FLAG-maCER1)
T1 sequence (Q8R4X1 1-273): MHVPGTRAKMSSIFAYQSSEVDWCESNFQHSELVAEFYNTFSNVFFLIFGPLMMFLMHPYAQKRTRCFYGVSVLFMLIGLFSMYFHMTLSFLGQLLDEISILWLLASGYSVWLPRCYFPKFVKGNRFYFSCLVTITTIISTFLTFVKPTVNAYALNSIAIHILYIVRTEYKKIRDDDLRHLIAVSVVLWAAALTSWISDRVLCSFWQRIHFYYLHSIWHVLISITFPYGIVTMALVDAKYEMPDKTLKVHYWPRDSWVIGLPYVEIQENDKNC
The test is described as follows: Ceramidase activity assay with maCER1-containing yeast microsomes (release of NBD-fatty acid from D-e-C12-NBD-ceramide). To be noted: FIG. 4C; for effect of sphingoid base on ceramidase activity (in words): same concentration range as sphingosine. The test is classed as biochemical. As to the method:
The microsomes, as in FIGS. 2A-D were assayed for ceramidase activity using D-e-C12-NBD-ceramide (200 μM) as substrate at different pH in the presence of 0.2% NP-40 and 5 mM Ca^2+ (FIG. 4A), at pH 8.5 in the presence of different cations (FIG. 4B), or different sphingoid bases (FIG. 4C). Results are the mean±SD of three independent experiments performed in duplicate.
maCER1 was expressed in yeast cells as described (Reference 21). Briefly, the expression construct pYES2-FLAG-maCER1 or the empty vector pYES2-FLAG was transformed into the yeast strain Δypc1Δydc1. Expression of the FLAG-tagged maCER1 was induced by 2% galactose.
Ceramidase activity was determined by the release of NBD-fatty acid from fluorescent substrates, NBD-C12-ceramide, dihydroceramide, or phytoceramide as described (Reference 21). Briefly, 20 μl of microsomes (containing 10-20 μg proteins) in buffer B (25 mM Tris-HCl, pH 8.0, 5 mM CaCl2) was mixed with 20 μl of 200 μM NBD-ceramide in buffer B with 0.4% NP-40 in a 1.5 ml microfuge tube. After incubation at 37° C. for 30-60 min, the reactions were stopped by boiling for 5 min, and dried under a SpeedVec. The released NBD-fatty acid was separated from NBD-ceramide by TLC in a solvent of chloroform:methanol: ammonium hydroxide (90:30:0.5) and quantified by PhosphorImager set at the fluorescent mode. To determine the pH optimum of maCER1, the maCER1 microsomes were resuspended in buffer C (1 mM Tris-HCl, pH 7.4, containing 5 mM CaCl2). To determine a cation effect, the maCER1 microsomes were resuspended in buffer A without CaCl2.

As for `CCCCCCCCCCCCCCC[C@@H](O)[C@@H](N)CO` [dihydrosphingosine, D-erythro-dihydrosphingosine], the “effect of sphingoid base on ceramidase activity (in words)” value is “neither phytosphingosine nor dihydrosphingosine in the same concentration range were inhibitory”.
Regarding `CCCCCCCCCCCCCC[C@@H](O)[C@@H](O)[C@@H](N)CO` [phytosphingosine, D-ribo-phytosphingosine], the “effect of sphingoid base on ceramidase activity (in words)” value is “neither phytosphingosine nor dihydrosphingosine in the same concentration range were inhibitory”.
For orientation: IC50 means the concentration that gives 50% inhibition. With `CCCCCCCCCCCCC/C=C/[C@@H](O)[C@@H](N)CO` [sphingosine, D-erythro-sphingosine], under “maCER1 microsomes, substrate D-e-C12-NBD-ceramide (200 μM), read-out: IC50 for the inhibition of ceramidase activity”, the IC50 was ~80 µM.
